Assay results taken from patent US20220088016A1, “CANCER TREATMENT USING MULTI-TARGETED KINASE INHIBITOR IN COMBINATION OF PROTEIN KINASE BIOMARKERS” (ZHEJIANG CROWNMAB BIOTECH CO. LTD., priority 2019, published 2022).

Tests used:
[1] = molecular target: ABL1 (F317I)-phosphorylated (Homo sapiens, UniProt P00519, F317I); experiment: Kinase profiling; type: binding; conditions: read-out: % Ctrl @ 1000 nM
[2] = molecular target: CDC2L5 (Homo sapiens, UniProt Q14004); experiment: Kinase profiling; type: binding; conditions: read-out: % Ctrl @ 1000 nM
[3] = molecular target: CSNK1G3 (Homo sapiens, UniProt Q9Y6M4); experiment: Kinase profiling; type: binding; conditions: read-out: % Ctrl @ 1000 nM
Sequence of CSNK1G3 (Q9Y6M4 whole entry): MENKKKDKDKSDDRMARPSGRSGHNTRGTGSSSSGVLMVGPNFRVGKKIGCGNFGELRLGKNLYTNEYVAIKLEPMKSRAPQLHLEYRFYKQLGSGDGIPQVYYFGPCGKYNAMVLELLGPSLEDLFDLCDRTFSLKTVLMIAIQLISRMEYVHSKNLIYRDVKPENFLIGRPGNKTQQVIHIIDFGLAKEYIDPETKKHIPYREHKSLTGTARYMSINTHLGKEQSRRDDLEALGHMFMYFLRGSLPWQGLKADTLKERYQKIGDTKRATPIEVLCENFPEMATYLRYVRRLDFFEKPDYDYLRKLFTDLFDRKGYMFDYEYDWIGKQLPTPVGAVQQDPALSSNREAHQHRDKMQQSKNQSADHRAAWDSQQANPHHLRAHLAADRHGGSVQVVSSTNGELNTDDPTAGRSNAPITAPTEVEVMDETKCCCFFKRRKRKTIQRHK

[4] = molecular target: EGFR (L861Q) (Homo sapiens, UniProt P00533, L861Q); experiment: Kinase profiling; type: binding; conditions: read-out: % Ctrl @ 1000 nM
Sequence of EGFR (L861Q) (P00533 25-1210 L861Q): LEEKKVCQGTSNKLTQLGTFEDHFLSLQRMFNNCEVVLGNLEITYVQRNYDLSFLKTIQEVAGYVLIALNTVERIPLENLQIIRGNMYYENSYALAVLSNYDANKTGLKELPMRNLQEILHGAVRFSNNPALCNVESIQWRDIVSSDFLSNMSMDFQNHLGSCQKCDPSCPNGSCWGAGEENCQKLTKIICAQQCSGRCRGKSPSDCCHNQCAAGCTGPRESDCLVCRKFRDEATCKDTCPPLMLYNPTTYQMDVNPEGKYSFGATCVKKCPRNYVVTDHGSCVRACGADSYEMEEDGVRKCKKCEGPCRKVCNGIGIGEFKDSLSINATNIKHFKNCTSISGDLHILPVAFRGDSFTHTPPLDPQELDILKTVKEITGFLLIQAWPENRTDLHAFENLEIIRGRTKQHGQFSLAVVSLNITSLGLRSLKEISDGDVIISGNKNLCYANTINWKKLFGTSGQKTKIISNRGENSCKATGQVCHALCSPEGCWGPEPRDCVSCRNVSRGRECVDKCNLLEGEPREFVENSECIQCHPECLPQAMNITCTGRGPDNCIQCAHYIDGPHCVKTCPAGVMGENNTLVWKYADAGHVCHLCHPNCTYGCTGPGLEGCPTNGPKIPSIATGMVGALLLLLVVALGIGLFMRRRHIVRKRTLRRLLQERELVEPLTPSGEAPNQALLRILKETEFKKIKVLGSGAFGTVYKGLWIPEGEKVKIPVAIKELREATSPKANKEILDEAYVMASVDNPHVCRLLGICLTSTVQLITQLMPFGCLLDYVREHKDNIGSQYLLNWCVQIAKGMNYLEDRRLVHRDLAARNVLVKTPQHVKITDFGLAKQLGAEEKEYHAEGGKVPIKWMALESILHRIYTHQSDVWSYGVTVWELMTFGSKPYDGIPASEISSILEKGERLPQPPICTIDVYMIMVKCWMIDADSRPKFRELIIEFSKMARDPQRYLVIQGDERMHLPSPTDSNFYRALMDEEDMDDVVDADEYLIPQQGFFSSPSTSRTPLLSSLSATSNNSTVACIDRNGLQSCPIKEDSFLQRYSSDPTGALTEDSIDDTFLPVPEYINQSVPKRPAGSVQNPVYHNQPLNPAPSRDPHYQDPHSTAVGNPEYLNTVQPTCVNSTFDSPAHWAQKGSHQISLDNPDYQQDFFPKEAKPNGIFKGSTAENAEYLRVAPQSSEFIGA

[5] = molecular target: EPHB4 (Homo sapiens, UniProt P54760); experiment: Kinase profiling; type: binding; conditions: read-out: % Ctrl @ 1000 nM
[6] = molecular target: ERBB4 (Homo sapiens, UniProt Q15303); experiment: Kinase profiling; type: binding; conditions: read-out: % Ctrl @ 1000 nM
[7] = molecular target: FRK (Homo sapiens, UniProt P42685); experiment: Kinase profiling; type: binding; conditions: read-out: % Ctrl @ 1000 nM
[8] = molecular target: IKK-beta (Homo sapiens, UniProt O14920); experiment: Kinase profiling; type: binding; conditions: read-out: % Ctrl @ 1000 nM
[9] = molecular target: IRAK4 (Homo sapiens, UniProt Q9NWZ3); experiment: Kinase profiling; type: binding; conditions: read-out: % Ctrl @ 1000 nM
Sequence of IRAK4 (Q9NWZ3 whole entry): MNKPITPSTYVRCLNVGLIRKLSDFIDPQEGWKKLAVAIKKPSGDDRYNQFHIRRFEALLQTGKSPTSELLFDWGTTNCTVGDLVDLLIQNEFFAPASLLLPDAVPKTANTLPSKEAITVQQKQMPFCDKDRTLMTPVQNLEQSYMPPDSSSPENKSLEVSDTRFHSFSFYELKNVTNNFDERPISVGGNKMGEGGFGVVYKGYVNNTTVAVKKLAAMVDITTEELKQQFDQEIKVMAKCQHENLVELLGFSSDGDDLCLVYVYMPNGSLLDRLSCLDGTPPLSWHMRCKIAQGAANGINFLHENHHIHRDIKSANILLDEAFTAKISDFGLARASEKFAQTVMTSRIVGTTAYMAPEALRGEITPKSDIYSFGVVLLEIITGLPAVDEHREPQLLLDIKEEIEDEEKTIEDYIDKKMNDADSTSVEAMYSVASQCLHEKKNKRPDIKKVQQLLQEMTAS

[10] = molecular target: LKB1 (Homo sapiens, UniProt Q15831); experiment: Kinase profiling; type: binding; conditions: read-out: % Ctrl @ 1000 nM
Sequence of LKB1 (Q15831 whole entry): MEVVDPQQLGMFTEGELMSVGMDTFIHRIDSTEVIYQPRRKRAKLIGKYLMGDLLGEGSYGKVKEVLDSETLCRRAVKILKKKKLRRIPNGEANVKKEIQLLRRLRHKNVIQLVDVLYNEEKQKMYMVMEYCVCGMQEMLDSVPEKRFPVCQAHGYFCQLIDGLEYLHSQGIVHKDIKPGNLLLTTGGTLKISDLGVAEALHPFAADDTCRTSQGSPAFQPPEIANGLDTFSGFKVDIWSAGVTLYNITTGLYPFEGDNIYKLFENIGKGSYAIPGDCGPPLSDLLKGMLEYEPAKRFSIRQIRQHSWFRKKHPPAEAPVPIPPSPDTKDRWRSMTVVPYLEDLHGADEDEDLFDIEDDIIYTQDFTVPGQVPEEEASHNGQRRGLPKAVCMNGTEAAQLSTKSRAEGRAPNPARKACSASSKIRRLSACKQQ

[11] = molecular target: T1, MTOR (Homo sapiens, UniProt P42345); experiment: Kinase profiling; type: binding; conditions: read-out: % Ctrl @ 1000 nM
T1 construct: T7 phage fusion (said for most assays); made in house

[12] = molecular target: T2, NDR2 (Homo sapiens, UniProt Q9Y2H1); experiment: Kinase profiling; type: binding; conditions: read-out: % Ctrl @ 1000 nM
T2 construct: T7 phage fusion (said for most assays); made in house

[13] = molecular target: PIK3CA (E542K) (Homo sapiens, UniProt P42336, E542K); experiment: Kinase profiling; type: binding; conditions: read-out: % Ctrl @ 1000 nM
Sequence of PIK3CA (E542K) (P42336 whole entry E542K): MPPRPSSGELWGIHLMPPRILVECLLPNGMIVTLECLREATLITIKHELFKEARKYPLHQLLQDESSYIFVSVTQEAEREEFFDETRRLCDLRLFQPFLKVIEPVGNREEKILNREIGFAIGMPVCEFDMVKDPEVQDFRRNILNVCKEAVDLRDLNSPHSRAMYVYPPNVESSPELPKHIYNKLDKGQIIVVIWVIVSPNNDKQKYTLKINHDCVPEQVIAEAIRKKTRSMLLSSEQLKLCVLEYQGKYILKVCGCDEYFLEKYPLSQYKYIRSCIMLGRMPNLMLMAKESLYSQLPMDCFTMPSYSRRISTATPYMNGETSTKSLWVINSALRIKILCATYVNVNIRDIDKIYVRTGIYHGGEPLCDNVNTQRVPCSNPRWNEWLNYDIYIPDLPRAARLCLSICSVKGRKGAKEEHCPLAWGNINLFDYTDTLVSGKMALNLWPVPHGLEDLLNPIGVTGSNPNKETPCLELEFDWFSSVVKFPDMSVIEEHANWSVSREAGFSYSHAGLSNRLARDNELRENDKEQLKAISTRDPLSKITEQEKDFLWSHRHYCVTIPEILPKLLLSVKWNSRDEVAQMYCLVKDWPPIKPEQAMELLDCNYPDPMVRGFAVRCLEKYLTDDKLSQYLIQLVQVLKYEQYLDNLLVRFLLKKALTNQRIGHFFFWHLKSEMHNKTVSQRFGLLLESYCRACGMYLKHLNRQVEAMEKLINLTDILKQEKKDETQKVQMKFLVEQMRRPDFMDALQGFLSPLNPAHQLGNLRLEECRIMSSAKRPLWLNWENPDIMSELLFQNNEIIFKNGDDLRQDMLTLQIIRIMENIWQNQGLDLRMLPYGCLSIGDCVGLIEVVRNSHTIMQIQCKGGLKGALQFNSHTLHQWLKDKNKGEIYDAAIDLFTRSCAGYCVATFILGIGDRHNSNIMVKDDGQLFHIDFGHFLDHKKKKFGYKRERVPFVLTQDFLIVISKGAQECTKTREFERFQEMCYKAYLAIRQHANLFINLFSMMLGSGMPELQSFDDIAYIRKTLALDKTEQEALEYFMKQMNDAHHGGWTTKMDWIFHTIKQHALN

[14] = molecular target: SNARK (Homo sapiens, UniProt Q9H093); experiment: Kinase profiling; type: binding; conditions: read-out: % Ctrl @ 1000 nM
Sequence of SNARK (Q9H093 whole entry): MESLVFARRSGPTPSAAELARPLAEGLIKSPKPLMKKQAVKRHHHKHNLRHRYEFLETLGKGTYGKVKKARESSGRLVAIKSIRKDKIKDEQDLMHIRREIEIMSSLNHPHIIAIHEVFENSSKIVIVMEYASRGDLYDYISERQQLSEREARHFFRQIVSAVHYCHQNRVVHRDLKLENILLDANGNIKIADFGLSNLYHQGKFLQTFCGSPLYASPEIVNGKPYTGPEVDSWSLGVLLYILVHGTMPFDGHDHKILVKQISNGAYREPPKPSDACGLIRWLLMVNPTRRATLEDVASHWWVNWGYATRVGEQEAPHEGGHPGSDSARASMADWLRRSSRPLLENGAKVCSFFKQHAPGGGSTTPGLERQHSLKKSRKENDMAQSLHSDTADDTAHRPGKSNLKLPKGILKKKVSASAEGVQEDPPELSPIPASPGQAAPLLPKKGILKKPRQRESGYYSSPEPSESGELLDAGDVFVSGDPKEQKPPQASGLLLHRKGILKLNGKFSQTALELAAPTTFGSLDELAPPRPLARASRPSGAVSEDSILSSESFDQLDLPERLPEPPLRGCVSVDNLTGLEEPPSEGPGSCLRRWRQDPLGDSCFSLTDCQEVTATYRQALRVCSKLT

[15] = molecular target: ULK1 (Homo sapiens, UniProt O75385); experiment: Kinase profiling; type: binding; conditions: read-out: % Ctrl @ 1000 nM
[16] = molecular target: ULK2 (Homo sapiens, UniProt Q8IYT8); experiment: Kinase profiling; type: binding; conditions: read-out: % Ctrl @ 1000 nM
[17] = molecular target: ZAK (Homo sapiens, UniProt Q9NYL2); experiment: Kinase profiling; type: binding; conditions: read-out: % Ctrl @ 1000 nM
[18] = molecular target: T3, CDK4/cyclinD3 (h) (Homo sapiens, UniProt P11802); experiment: Kinase IC50 (Eurofins KinaseProfiler); type: biochemical
T3 construct: purchased Eurofins (KinaseProfiler service)
Protocol: (§1) CBT-102 were tested against each of the selected kinases using the Eurofins standard KinaseProfder assays and following the relevant standard operating procedures. The required volume of the 50× stock of test compound (CBT-102) was added to the assay well, before a reaction mix containing the enzyme and substrate was added. The reaction was initiated by the addition of ATP at the selected concentration. There was no pre-incubation of the compound with the enzyme/substrate mix prior to ATP addition.
(§2) Data are handled using a custom-built in-house analysis software. Results are expressed as kinase activity remaining, as a percentage of the DMSO control. This is calculated using the following formula: […]
(§3) For IC50 determinations, data are analyzed using XLFit version 5.3 (ID Business Solutions).

[19] = molecular target: T4, CHK1 (h) (Homo sapiens, UniProt O14757); experiment: Kinase IC50 (Eurofins KinaseProfiler); type: biochemical
T4 construct: purchased Eurofins (KinaseProfiler service)
Protocol: as §1, §2, §3

[20] = molecular target: T5, EGFR (h) (Homo sapiens, UniProt P00533); experiment: Kinase IC50 (Eurofins KinaseProfiler); type: biochemical
T5 construct: purchased Eurofins (KinaseProfiler service)
Protocol: as §1, §2, §3

[21] = molecular target: T6, FGFR4 (h) (Homo sapiens, UniProt P22455); experiment: Kinase IC50 (Eurofins KinaseProfiler); type: biochemical
T6 construct: purchased Eurofins (KinaseProfiler service)
Protocol: as §1, §2, §3

[22] = molecular target: T7, Flt1 (h) (Homo sapiens, UniProt P17948); experiment: Kinase IC50 (Eurofins KinaseProfiler); type: biochemical
T7 construct: purchased Eurofins (KinaseProfiler service)
Protocol: as §1, §2, §3

[23] = molecular target: T8, Flt3 (h) (Homo sapiens, UniProt P36888); experiment: Kinase IC50 (Eurofins KinaseProfiler); type: biochemical
T8 construct: purchased Eurofins (KinaseProfiler service)
Protocol: as §1, §2, §3

[24] = molecular target: T9, IKKβ (h) (Homo sapiens, UniProt O14920); experiment: Kinase IC50 (Eurofins KinaseProfiler); type: biochemical
T9 construct: purchased Eurofins (KinaseProfiler service)
Protocol: as §1, §2, §3

[25] = molecular target: T10, JAK2 (h) (Homo sapiens, UniProt O60674); experiment: Kinase IC50 (Eurofins KinaseProfiler); type: biochemical
T10 construct: purchased Eurofins (KinaseProfiler service)
Protocol: as §1, §2, §3

[26] = molecular target: T11, KDR (h) (Homo sapiens, UniProt P35968); experiment: Kinase IC50 (Eurofins KinaseProfiler); type: biochemical
T11 construct: purchased Eurofins (KinaseProfiler service)
Protocol: as §1, §2, §3

[27] = molecular target: T12, LOK (h) (Homo sapiens, UniProt O94804); experiment: Kinase IC50 (Eurofins KinaseProfiler); type: biochemical
T12 construct: purchased Eurofins (KinaseProfiler service)
Protocol: as §1, §2, §3

[28] = molecular target: T13, MAP4K4 (h) (Homo sapiens, UniProt O95819); experiment: Kinase IC50 (Eurofins KinaseProfiler); type: biochemical
T13 construct: purchased Eurofins (KinaseProfiler service)
Protocol: as §1, §2, §3

[29] = molecular target: T14, Ret (h) (Homo sapiens, UniProt P07949); experiment: Kinase IC50 (Eurofins KinaseProfiler); type: biochemical
T14 construct: purchased Eurofins
Protocol: as §1, §2, §3

[30] = molecular target: T15, SAPK2b (h) (Homo sapiens, UniProt Q15759); experiment: Kinase IC50 (Eurofins KinaseProfiler); type: biochemical
T15 construct: purchased Eurofins
T15 sequence (Q15759 whole entry): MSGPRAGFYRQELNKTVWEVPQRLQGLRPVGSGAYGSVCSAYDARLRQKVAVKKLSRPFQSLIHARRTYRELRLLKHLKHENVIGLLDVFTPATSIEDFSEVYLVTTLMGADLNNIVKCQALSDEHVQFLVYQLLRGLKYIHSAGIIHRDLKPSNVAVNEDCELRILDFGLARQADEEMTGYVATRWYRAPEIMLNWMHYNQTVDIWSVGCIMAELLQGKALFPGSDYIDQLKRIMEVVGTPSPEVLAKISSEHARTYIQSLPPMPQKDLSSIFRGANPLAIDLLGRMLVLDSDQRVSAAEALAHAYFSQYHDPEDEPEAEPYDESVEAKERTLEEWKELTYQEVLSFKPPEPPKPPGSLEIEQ
Protocol: as §1, §2, §3

[31] = molecular target: T16, SAPK3 (h) (Homo sapiens, UniProt P53778); experiment: Kinase IC50 (Eurofins KinaseProfiler); type: biochemical
T16 construct: purchased Eurofins
T16 sequence (P53778 whole entry): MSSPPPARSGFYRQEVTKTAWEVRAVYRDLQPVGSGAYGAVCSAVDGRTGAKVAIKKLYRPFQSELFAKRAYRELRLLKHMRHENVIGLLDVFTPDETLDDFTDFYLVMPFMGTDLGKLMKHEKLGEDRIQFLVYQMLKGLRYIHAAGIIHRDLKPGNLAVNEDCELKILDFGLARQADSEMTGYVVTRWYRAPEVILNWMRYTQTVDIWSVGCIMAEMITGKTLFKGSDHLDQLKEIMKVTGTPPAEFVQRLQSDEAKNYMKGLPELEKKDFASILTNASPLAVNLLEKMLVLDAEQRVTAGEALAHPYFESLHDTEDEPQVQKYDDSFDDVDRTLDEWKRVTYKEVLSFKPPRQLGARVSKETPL
Protocol: as §1, §2, §3

[32] = molecular target: T17, SGK3 (h) (Homo sapiens, UniProt Q96BR1); experiment: Kinase IC50 (Eurofins KinaseProfiler); type: biochemical
T17 construct: purchased Eurofins
Protocol: as §1, §2, §3

[33] = molecular target: T18, ZAK (h) (Homo sapiens, UniProt Q9NYL2); experiment: Kinase IC50 (Eurofins KinaseProfiler); type: biochemical
T18 construct: purchased Eurofins
Protocol: as §1, §2, §3

[34] = tested on: CD4 (T cell surface marker); experiment: CD4 IHC test in MC-38 tumor; type: in vivo, mouse; conditions: MC-38 tumors; vs vehicle group
Protocol: MC38 tumor tissues were collected at the end of the in vivo efficacy trial. The tumor tissue was then embedded in paraffin. The expression of CD3/CD4/CD8/F4-80 were tested by immunohistochemistry stain.

Cc1cc(Oc2cc(NC(=O)C3CC3)ncn2)ccc1NC(=O)Nc1ccc(Cl)c(C(F)(F)F)c1 [CBT-102]
remaining activity at 1 µM [1]: 95%
remaining activity at 1 µM [2]: 73%
remaining activity at 1 µM [3]: 96%
remaining activity at 1 µM [4]: 56%
remaining activity at 1 µM [5]: 18%
remaining activity at 1 µM [6]: 100%
remaining activity at 1 µM [7]: 6.1%
remaining activity at 1 µM [8]: 92%
remaining activity at 1 µM [9]: 93%
remaining activity at 1 µM [10]: 100%
remaining activity at 1 µM [11]: 94%
remaining activity at 1 µM [12]: 100%
remaining activity at 1 µM [13]: 96%
remaining activity at 1 µM [14]: 100%
remaining activity at 1 µM [15]: 98%
remaining activity at 1 µM [16]: 98%
remaining activity at 1 µM [17]: 5.5%
IC50 [18]: > 10000 nM
IC50 [19]: > 10000 nM
IC50 [20]: > 10000 nM
IC50 [21]: > 10000 nM
IC50 [22]: 21 nM
IC50 [23]: 1090 nM
IC50 [24]: > 10000 nM
IC50 [25]: > 10000 nM
IC50 [26]: 25 nM
IC50 [27]: 1090 nM
IC50 [28]: 763 nM
IC50 [29]: 43 nM
IC50 [30]: 70 nM
IC50 [31]: 1200 nM
IC50 [32]: > 10000 nM
IC50 [33]: 26 nM
effect on T cell surface marker CD4 (IHC) [34]: no significant effect
